Data published in patent US20160184274A1, “Methods for inhibiting mesenchymal phenotype after epithelial-to-mesenchymal transition” (Fibrostatin, S.L., priority 2014, published 2016).

Biological target: T1, trimeric intracellular GPBP (Homo sapiens, UniProt Q9Y5P4)
T1 construct: made in house; host or cells: Sf9 insect cells (baculovirus), purified from cell lysates
T1 sequence (Q9Y5P4 1-624): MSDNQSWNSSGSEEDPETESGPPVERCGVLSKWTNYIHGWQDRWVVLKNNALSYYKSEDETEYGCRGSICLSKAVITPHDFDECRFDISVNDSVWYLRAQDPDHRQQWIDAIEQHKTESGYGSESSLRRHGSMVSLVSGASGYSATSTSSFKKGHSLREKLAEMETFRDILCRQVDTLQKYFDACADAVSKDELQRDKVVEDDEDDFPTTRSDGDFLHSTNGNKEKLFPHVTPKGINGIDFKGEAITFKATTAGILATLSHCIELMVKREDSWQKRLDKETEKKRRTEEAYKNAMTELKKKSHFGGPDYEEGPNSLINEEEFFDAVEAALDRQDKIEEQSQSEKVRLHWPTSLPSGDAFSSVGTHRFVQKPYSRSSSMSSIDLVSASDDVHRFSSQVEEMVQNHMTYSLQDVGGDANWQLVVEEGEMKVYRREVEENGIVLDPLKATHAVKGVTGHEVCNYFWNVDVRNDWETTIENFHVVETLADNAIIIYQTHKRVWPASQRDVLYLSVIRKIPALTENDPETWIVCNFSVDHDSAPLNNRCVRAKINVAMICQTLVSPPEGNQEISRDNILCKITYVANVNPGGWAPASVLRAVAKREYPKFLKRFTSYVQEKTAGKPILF
Experiment: In vitro phosphorylation assay with trimeric intracellular GPBP
Type: biochemical
Settings: T12 50 μM; autophosphorylation, γ[32P]ATP; FIG. 2
Experimental: FIG. 2. […] Multimeric extracellular and trimeric intracellular GPBP were purified by affinity chromatography and subsequent gel filtration chromatography, and used for in vitro phosphorylation assays in absence (−) or presence (+) of T12 (50 μM). Reactions were subjected to SDS-PAGE, Western blot onto PVDF membrane and autoradiography, and further protein detected with anti-FLAG primary antibodies. Autoradiography and anti-FLAG® bands were quantified with WCIF IMAGEJ® software, and the normalized kinase activity estimated. Shown are normalized kinase activities. […] Samples were analyzed in triplicate and the data represents the Mean (±SEM) of three independent assays.
FLAG®-tagged GPBP was expressed using Bac-to-Bac® Baculovirus Expression System. […] Finally, purified protein was quantified with Bio-Rad Protein Assay and stored at −20° C. […]
Typically, about 270 ng of purified FLAG®-GPBP protein, either extracellular multimer or intracellular trimer, were incubated in presence or absence of T12 […] in a kinase assay buffer containing 25 mM disodium β-glycerophosphate, 8 mM MgCl2, 0.5 mM EDTA, 0.5 mM EGTA, 1 mM DTT, 5 mM MnCl2 during 10 min at 37° C. […] Then reactions were stopped with SDS-PAGE loading buffer and heat (95° C., 3 min) and analyzed by SDS-PAGE, electro-transference to PVDF membrane (Merck Millipore) and autoradiography. […]

normalized kinase activity of GPBP: not intracellular GPBP trimers
SMILES: COc1ccc(-c2ccc(-c3cccc(C)c3)c(C)c2)c(CCC(=O)O)c1 [T12, 3-[4″-methoxy-3,2′-dimethyl-(1,1′;4′,1″)terphenyl-2″-yl] propionic acid]
